Series [1] addresses C-C chemokine receptor type 2 (Homo sapiens, UniProt P41597). The class given is cell membranes, CHO-K1, Membrane. The settings on record: cho-k1.
A short description of series [2]: DRUGMATRIX: Glutamate, AMPA radioligand binding (ligand: [3H] AMPA). The note with it: Not Active = under 50% inhibition at 10 µM. Format: cell membranes, Rattus norvegicus, Wistar, Cerebral cortex, Membrane.
Series [3] addresses 5-hydroxytryptamine receptor 2B (Homo sapiens, UniProt P41595). The class given is cell membranes, CHO-K1, Membrane. The note with it: for pIC50: read-out: IC50; for pKi: read-out: Ki.
For series [4], the target named is T1, 5-hydroxytryptamine receptor 1A (Rattus norvegicus, UniProt P19327). Note: in other assays of this panel Not Active means under 50% inhibition at 10 µM.
T1 sequence (P19327 whole entry): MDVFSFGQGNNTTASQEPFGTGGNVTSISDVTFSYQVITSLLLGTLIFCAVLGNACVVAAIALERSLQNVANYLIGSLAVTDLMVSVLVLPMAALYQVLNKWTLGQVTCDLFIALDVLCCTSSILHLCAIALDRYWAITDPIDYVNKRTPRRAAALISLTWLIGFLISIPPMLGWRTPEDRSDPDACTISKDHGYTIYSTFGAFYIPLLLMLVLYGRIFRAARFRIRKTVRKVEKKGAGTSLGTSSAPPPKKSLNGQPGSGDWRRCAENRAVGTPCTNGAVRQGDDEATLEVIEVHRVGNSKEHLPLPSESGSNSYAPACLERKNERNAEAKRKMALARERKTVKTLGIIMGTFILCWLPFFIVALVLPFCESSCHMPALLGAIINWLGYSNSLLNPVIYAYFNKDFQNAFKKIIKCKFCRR
The class given is cell membranes, CHO-K1, Membrane.

The next series deals with T2, Interstitial collagenase (Homo sapiens, UniProt P03956).
T2 sequence (P03956 whole entry): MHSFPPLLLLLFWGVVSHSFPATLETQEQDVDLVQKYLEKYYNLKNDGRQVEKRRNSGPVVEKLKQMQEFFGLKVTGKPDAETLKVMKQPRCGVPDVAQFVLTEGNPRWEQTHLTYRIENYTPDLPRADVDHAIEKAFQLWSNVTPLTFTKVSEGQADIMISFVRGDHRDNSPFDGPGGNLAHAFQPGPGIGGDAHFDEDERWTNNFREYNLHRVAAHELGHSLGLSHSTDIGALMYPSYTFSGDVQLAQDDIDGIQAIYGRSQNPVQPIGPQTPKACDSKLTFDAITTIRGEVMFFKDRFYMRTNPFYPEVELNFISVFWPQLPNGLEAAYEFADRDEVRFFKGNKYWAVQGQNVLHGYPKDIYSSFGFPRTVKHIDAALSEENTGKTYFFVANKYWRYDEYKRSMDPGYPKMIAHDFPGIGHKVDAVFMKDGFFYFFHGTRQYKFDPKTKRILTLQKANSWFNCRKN
As to the kind of experiment: biochemical. The class given is tissue-based, Rheumatoid synovial fibroblasts.

For the next series, the target named is Cytochrome P450 2E1 (Homo sapiens, UniProt P05181). The note with it: bti-tn-5b1-4. Note: in other assays of this panel Not Active means under 50% inhibition at 10 µM.
Cytochrome P450 2E1, sequence (P05181 whole entry): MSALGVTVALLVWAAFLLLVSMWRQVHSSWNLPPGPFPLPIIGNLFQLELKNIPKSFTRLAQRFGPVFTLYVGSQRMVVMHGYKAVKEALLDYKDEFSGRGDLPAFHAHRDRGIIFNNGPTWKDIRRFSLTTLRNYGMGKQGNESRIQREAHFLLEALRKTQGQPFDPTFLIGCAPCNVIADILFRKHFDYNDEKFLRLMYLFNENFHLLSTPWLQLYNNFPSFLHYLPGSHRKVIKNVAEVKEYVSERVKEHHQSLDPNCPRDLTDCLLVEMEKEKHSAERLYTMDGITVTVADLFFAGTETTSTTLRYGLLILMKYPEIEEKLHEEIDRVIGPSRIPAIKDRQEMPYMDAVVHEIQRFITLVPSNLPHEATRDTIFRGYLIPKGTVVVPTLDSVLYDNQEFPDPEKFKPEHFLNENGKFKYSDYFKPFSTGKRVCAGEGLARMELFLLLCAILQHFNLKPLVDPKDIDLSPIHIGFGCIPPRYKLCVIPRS

pIC50, pKi: −log10 of the molar value.

5-hydroxytryptamine receptor 2B, sequence (P41595 whole entry): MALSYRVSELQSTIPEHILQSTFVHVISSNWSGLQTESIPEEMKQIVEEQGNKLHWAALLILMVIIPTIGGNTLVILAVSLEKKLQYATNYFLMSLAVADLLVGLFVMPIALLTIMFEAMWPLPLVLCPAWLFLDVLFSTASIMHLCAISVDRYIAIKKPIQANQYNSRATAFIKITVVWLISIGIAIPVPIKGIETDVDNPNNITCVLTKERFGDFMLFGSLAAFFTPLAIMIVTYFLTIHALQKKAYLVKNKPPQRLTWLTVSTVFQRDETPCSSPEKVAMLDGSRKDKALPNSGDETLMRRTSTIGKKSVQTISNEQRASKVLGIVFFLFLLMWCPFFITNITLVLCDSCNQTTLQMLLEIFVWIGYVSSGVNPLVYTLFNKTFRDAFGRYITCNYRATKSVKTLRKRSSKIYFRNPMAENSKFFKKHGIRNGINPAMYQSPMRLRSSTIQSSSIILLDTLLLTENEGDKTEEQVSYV
C-C chemokine receptor type 2, sequence (P41597 whole entry): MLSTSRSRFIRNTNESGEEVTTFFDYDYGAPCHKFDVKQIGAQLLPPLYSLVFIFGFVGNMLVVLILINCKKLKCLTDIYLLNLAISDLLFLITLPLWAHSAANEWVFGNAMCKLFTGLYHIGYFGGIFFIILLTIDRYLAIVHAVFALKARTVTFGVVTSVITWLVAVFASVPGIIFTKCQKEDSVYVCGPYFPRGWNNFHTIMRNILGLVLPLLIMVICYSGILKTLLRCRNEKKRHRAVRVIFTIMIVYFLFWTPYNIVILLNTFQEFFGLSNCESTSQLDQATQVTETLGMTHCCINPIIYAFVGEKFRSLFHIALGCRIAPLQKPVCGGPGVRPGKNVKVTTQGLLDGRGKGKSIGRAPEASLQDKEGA

As for `NS(=O)(=O)c1cc2c(cc1Cl)NC(C(Cl)Cl)NS2(=O)=O` (configuration not stated) [TRICHLORMETHIAZIDE], the IC50 result (in series [1]; in series [2]; in series [3] (cho-k1); in series [4] (cho-k1); against Interstitial collagenase; against Cytochrome P450 2E1) was “Not Active” each time. The Ki entry (in series [2]; on Cytochrome P450 2E1) was “Not Active” throughout.
Regarding `CCCOc1ccccc1-c1nc2nn[nH]c2c(=O)[nH]1` [ZAPRINAST], the IC50 result (in series [1]; in series [2]; in series [3] (cho-k1); in series [4] (cho-k1); against Interstitial collagenase; at Cytochrome P450 2E1) was “Not Active” each time. Besides, the Ki result (in series [2]; at Cytochrome P450 2E1) was “Not Active” throughout.
In the case of `N#CC(C#N)=Cc1ccc(O)c(O)c1` [TYRPHOSTIN 23], the IC50 entry (in series [1]; in series [2]; in series [3] (cho-k1); in series [4] (cho-k1); at Interstitial collagenase; against Cytochrome P450 2E1) was “Not Active” throughout. In addition, the Ki result (in series [2]; at Cytochrome P450 2E1) was “Not Active” throughout.
On to `C=CCC1(C(C)CCC)C(=O)NC(=O)NC1=O` (configuration not stated) [SECOBARBITAL], for which the IC50 entry (in series [1]; in series [2]; in series [3] (cho-k1); in series [4] (cho-k1); at Interstitial collagenase; on Cytochrome P450 2E1) was “Not Active” each time. Moreover, the Ki entry (in series [2]; at Cytochrome P450 2E1) was “Not Active” each time.
For `OCCN(CCO)c1nc(N2CCCCC2)c2nc(N(CCO)CCO)nc(N3CCCCC3)c2n1` [DIPYRIDAMOLE], the IC50 entry (in series [1]; in series [2]; in series [3] (cho-k1); in series [4] (cho-k1); against Interstitial collagenase; against Cytochrome P450 2E1) was “Not Active” each time. Moreover, the Ki entry (in series [2]; on Cytochrome P450 2E1) was “Not Active” each time.
For `Nc1c2c(nc3ccccc13)CCCC2` [TACRINE], the IC50 result (in series [1]; in series [2]; in series [3] (cho-k1); in series [4] (cho-k1); at Interstitial collagenase; against Cytochrome P450 2E1) was “Not Active” throughout. For the same compound, the Ki entry (in series [2]; on Cytochrome P450 2E1) was “Not Active” throughout.
In the case of `Cn1ccnc1S` [METHIMAZOLE], the IC50 result (in series [1]; in series [2]; in series [3] (cho-k1); in series [4] (cho-k1); against Interstitial collagenase; on Cytochrome P450 2E1) was “Not Active” each time. The Ki entry (in series [2]; on Cytochrome P450 2E1) was “Not Active” in each case.
In the case of `N[C@@H]1[C@H]2CN(c3nc4c(cc3F)c(=O)c(C(=O)O)cn4-c3ccc(F)cc3F)C[C@@H]12` [TROVAFLOXACIN], the IC50 result (in series [1]; in series [2]; in series [3] (cho-k1); in series [4] (cho-k1); on Interstitial collagenase; at Cytochrome P450 2E1) was “Not Active” in each case. Besides, the Ki entry (in series [2]; at Cytochrome P450 2E1) was “Not Active” each time.
`CC1(C)O[C@@H]2C[C@H]3[C@@H]4CCC5=CC(=O)C=C[C@]5(C)[C@@]4(F)[C@@H](O)C[C@]3(C)[C@]2(C(=O)CO)O1` [TRIAMCINOLONE ACETONIDE]: the IC50 entry (in series [1]; in series [2]; in series [3] (cho-k1); in series [4] (cho-k1); at Interstitial collagenase; at Cytochrome P450 2E1) was “Not Active” each time. Besides, the Ki result (in series [2]; at Cytochrome P450 2E1) was “Not Active” in each case.
As to `NC[C@H]1CC[C@H](C(=O)O)CC1` [TRANEXAMIC ACID], the IC50 result (in series [1]; in series [2]; in series [3] (cho-k1); in series [4] (cho-k1); at Interstitial collagenase; on Cytochrome P450 2E1) was “Not Active” in each case. For the same compound, the Ki result (in series [2]; at Cytochrome P450 2E1) was “Not Active” in each case.
Take `COc1c(C)c2c(c(O)c1C/C=C(\C)CCC(=O)O)C(=O)OC2` [MYCOPHENOLIC ACID]: the IC50 entry (in series [1]; in series [2]; in series [3] (cho-k1); in series [4] (cho-k1); against Interstitial collagenase; at Cytochrome P450 2E1) was “Not Active” throughout. Moreover, the Ki result (in series [2]; on Cytochrome P450 2E1) was “Not Active” each time.
Turning to `N[C@@H](Cc1ccc(N(CCCl)CCCl)cc1)C(=O)O`, the IC50 entry (in series [1]; in series [2]; in series [3] (cho-k1); in series [4] (cho-k1); at Interstitial collagenase; on Cytochrome P450 2E1) was “Not Active” in each case. Besides, the Ki entry (in series [2]; on Cytochrome P450 2E1) was “Not Active” each time.
For the compound `CO[C@H]1/C=C/O[C@@]2(C)Oc3c(C)c(O)c4c(O)c(c(/C=N/N5CCN(C)CC5)c(O)c4c3C2=O)NC(=O)/C(C)=C\C=C\[C@H](C)[C@H](O)[C@@H](C)[C@@H](O)[C@@H](C)[C@H](OC(C)=O)[C@@H]1C` [RIFAMPIN], the IC50 entry (in series [1]; in series [2]; in series [3] (cho-k1); in series [4] (cho-k1); against Interstitial collagenase; against Cytochrome P450 2E1) was “Not Active” in each case. Further, the Ki entry (in series [2]; on Cytochrome P450 2E1) was “Not Active” in each case.
As to `O=NN(CCCl)C(=O)NC1CCCCC1` [LOMUSTINE], the IC50 result (in series [1]; in series [2]; in series [3] (cho-k1); in series [4] (cho-k1); against Interstitial collagenase; against Cytochrome P450 2E1) was “Not Active” in each case. Besides, the Ki result (in series [2]; on Cytochrome P450 2E1) was “Not Active” each time.
For `CSc1ccc(/C=C2/C(C)=C(CC(=O)O)c3cc(F)ccc32)cc1` [SULINDAC SULFIDE], the IC50 entry (in series [1]; in series [2]; in series [3] (cho-k1); in series [4] (cho-k1); against Interstitial collagenase; against Cytochrome P450 2E1) was “Not Active” throughout. Moreover, the Ki entry (in series [2]; on Cytochrome P450 2E1) was “Not Active” in each case.
Take SODIUM NITROPRUSSIDE: the IC50 result (in series [1]; in series [2]; in series [3] (cho-k1); in series [4] (cho-k1); against Interstitial collagenase; at Cytochrome P450 2E1) was “Not Active” in each case. The Ki result (in series [1]; in series [2]; in series [3] (cho-k1); in series [4] (cho-k1); on Interstitial collagenase; on Cytochrome P450 2E1) was “Not Active” in each case.
`Cc1noc(NS(=O)(=O)c2ccc(N)cc2)c1C` [SULFISOXAZOLE]: the IC50 result (in series [1]; in series [2]; in series [3] (cho-k1); in series [4] (cho-k1); against Interstitial collagenase; against Cytochrome P450 2E1) was “Not Active” in each case. Besides, the Ki result (in series [2]; on Cytochrome P450 2E1) was “Not Active” throughout.
Consider `Cc1cccc(N(C)C(=S)Oc2ccc3ccccc3c2)c1` [TOLNAFTATE], for which the IC50 result (in series [1]; in series [2]; in series [4] (cho-k1); at Interstitial collagenase; on Cytochrome P450 2E1) was “Not Active” throughout. Also, the Ki result (in series [2]; on Cytochrome P450 2E1) was “Not Active” in each case. In addition, in series [3], the pIC50 was 5.70. For the same compound, the pKi in series [3] was 5.89.
On to `Cc1oncc1C(=O)Nc1ccc(C(F)(F)F)cc1` [LEFLUNOMIDE], for which the IC50 result (in series [1]; in series [2]; in series [3] (cho-k1); in series [4] (cho-k1); at Interstitial collagenase; against Cytochrome P450 2E1) was “Not Active” in each case. For the same compound, the Ki result (in series [2]; at Cytochrome P450 2E1) was “Not Active” throughout.
As to `CC[C@@H](CO)NC(=O)[C@@H]1C=C2c3cccc4[nH]cc(c34)C[C@H]2N(C)C1` [METHYLERGONOVINE], the IC50 entry (in series [1]; in series [2]; against Interstitial collagenase; against Cytochrome P450 2E1) was “Not Active” in each case. Also, the Ki entry (in series [2]; at Cytochrome P450 2E1) was “Not Active” each time. Also, the pIC50 in series [3] is 8.82; in series [4] (read-out: IC50), 8.39. Further, the results for the pKi in series [3] and in series [4] (read-out: Ki) were 9.02 and 8.63, respectively.

Usually pIC50 stands for the IC50 on a negative log10 scale, so that one unit is a factor of ten. Usually pKi stands for the negative decadic logarithm of the Ki, by convention in mol/L.
